Reference: US9120804B2, “8-substituted 2-amino-[1,2,4] triazolo [1, 5-A] pyrazines as Syk tryrosine kinase inhibitors and GCN2 serin kinase inhibitors” (Merck Patent GmbH, priority 2012, dated 2015)
pIC50: −log10 of the molar value. Counter-ions that a name gives are not always drawn.

Legend:
SYK = target: T1, SYK (Homo sapiens, UniProt P43405); test: SYK flash plate assay (enzyme assay); type: biochemical
T1 construct: 2.5 nM SYK, 400 nM Biotin-Aha-Aha-KEDPDYEWPSAKK
Summary of the method: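 Radiometric Flashplate format: biotinylated peptide substrate (400 nM) and 33P-labelled ATP (10 μM) react with 2.5 nM enzyme for 1 hour at 30 °C in Hepes buffer, pH 7.5. After EDTA quench and washing, counts are taken; staurosporine defines non-specific signal, and IC50 values are derived.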

GCN2 = GCN2 (Homo sapiens, UniProt Q9P2K8); test: GCN2 enzyme assay; type: biochemical
Chain of GCN2 (Q9P2K8 whole entry): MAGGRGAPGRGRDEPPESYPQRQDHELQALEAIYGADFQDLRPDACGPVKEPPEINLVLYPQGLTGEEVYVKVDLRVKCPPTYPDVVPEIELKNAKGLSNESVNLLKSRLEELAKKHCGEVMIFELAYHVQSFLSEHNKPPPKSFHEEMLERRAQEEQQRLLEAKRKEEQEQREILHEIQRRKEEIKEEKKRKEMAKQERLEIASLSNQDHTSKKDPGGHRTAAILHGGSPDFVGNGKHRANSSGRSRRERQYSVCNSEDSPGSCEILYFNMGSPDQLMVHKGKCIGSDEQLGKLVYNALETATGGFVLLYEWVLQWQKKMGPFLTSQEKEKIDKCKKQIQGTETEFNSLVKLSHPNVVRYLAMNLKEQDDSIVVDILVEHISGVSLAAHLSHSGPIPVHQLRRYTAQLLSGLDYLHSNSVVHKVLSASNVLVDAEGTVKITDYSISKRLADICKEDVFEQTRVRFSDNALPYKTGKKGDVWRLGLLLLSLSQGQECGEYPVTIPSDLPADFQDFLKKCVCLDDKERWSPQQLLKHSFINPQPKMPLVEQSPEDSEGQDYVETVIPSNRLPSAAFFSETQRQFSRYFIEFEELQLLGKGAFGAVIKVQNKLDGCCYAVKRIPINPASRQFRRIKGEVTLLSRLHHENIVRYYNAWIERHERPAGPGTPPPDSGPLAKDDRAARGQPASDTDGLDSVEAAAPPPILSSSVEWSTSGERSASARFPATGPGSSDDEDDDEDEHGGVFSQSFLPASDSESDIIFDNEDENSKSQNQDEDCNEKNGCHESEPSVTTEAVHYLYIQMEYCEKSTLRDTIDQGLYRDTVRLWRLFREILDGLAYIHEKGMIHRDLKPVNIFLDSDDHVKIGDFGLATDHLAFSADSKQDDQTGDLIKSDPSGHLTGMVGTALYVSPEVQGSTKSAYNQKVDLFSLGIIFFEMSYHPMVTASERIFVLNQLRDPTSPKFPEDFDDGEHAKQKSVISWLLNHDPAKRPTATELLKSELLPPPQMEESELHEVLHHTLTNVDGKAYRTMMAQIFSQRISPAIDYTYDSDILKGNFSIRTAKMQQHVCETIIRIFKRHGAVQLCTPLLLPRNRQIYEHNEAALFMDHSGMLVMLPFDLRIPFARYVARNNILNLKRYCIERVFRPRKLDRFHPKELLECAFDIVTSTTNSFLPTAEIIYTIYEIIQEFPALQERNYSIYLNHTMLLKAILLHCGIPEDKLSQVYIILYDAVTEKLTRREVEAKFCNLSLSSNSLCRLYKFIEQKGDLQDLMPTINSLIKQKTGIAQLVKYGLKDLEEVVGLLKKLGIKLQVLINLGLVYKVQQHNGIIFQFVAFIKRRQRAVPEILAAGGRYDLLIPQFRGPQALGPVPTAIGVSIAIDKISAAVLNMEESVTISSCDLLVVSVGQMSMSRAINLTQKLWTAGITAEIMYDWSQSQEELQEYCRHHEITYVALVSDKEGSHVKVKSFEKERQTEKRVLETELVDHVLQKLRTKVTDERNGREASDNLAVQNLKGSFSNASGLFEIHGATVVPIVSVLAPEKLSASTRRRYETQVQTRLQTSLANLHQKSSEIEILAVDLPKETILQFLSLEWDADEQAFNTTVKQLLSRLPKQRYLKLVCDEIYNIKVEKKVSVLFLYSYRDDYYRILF

Row | pIC50 (SYK) | pIC50 (GCN2) | SMILES
1 | 5.52 to 6.52 | 4.30 to 5.52 | CN(c1nccn2nc(Nc3ccc4c(c3)NC(=O)C4(C)C)nc12)C1CCCCC1 [C78, 6-[8-(cyclohexyl-methyl-amino)-[1,2,4]triazolo[1,5-a]pyrazin-2-ylamino]-3,3-dimethyl-1,3-dihydro-indol-2-one]
2 | 6.52 to 7.00 | 5.52 to 6.52 | Cn1cc(-c2nccn3nc(Nc4ccc5c(c4)NC(=O)C5(C)O)nc23)cn1 (stereo not drawn) [C71, 3-hydroxy-3-methyl-6-[8-(1-methyl-1H-pyrazol-4-yl)-[1,2,4]triazolo[1,5-a]pyrazin-2-ylamino]-1,3-dihydro-indol-2-one]
3 | 5.52 to 6.52 | 5.52 to 6.52 | Cn1cc(-c2nccn3nc(Nc4ccc5c(c4)NC(=O)C5)nc23)cn1 [C60, 6-[8-(1-methyl-1H-pyrazol-4-yl)-[1,2,4]triazolo[1,5-a]pyrazin-2-ylamino]-1,3-dihydro-indol-2-one]
4 | 5.52 to 6.52 | 4.30 to 5.52 | CC1(C)C(=O)Nc2cc(Nc3nc4c(N5CCC(N6CCNC6=O)CC5)nccn4n3)ccc21 [C104, 3,3-dimethyl-6-{8-[4-(2-oxo-imidazolidin-1-yl)-piperidin-1-yl]-[1,2,4]triazolo[1,5-a]pyrazin-2-ylamino}-1,3-dihydro-indol-2-one]
5 | 5.52 to 6.52 | 4.30 to 5.52 | Cn1cc(Nc2nc3c(-c4cnn(C)c4)nccn3n2)cn1 [C26, (1-Methyl-1H-pyrazol-4-yl)-[8-(1-methyl-1H-pyrazol-4-yl)-[1,2,4]triazolo[1,5-a]pyrazin-2-yl]-amine]
6 | 5.52 to 6.52 | 5.52 to 6.52 | Cn1cc(-c2nccn3nc(Nc4ccc(C5(C(N)=O)CC5)cc4)nc23)cn1 [C64, 1-{4-[8-(1-methyl-1H-pyrazol-4-yl)-[1,2,4]triazolo[1,5-a]pyrazin-2-ylamino]-phenyl}-cyclopropanecarboxylic acid amide]
7 | 6.52 to 7.00 | 5.52 to 6.52 | CN1c2ccc(Nc3nc4c(-c5cnn(C)c5)nccn4n3)cc2CS1(=O)=O [C117, (1-methyl-2,2-dioxo-2,3-dihydro-1H-2I6-benzo[c]isothiazol-5-yl)-[8-(1-methyl-1H-pyrazol-4-yl)-[1,2,4]triazolo[1,5-a]pyrazin-2-yl]-amine]
8 | > 7.00 | 4.30 to 5.52 | CC1(C)OC(=O)Nc2cc(Nc3nc4c(N5CCC6(C5)NC(=O)NC6=O)nccn4n3)ccc21 (stereo not drawn) [C118, 7-[2-(4,4-dimethyl-2-oxo-1,4-dihydro-2H-benzo[d][1,3]oxazin-7-ylamino)-[1,2,4]triazolo[1,5-a]pyrazin-8-yl]-1,3,7-triaza-spiro[4.4]nonane-2,4-dione]
9 | > 7.00 | 5.52 to 6.52 | CC(C)C(O)(c1n[nH]c2cc(Nc3nc4c(-c5cnn(C)c5)nccn4n3)ccc12)C(C)C [C141, 2,4-dimethyl-3-{6-[8-(1-methyl-1H-pyrazol-4-yl)-[1,2,4]triazolo[1,5-a]pyrazin-2-ylamino]-1H-indazol-3-yl}-pentan-3-ol]
10 | > 7.00 | 4.30 to 5.52 | CC1(C)C(=O)Nc2cc(Nc3nc4c(N5CCC6(C5)NC(=O)NC6=O)nccn4n3)ccc21 (stereo not drawn) [C108, 7-[2-(3,3-dimethyl-2-oxo-2,3-dihydro-1H-indol-6-ylamino)-[1,2,4]triazolo[1,5-a]pyrazin-8-yl]-1,3,7-triaza-spiro[4.4]nonane-2,4-dione]
11 | 6.52 to 7.00 | 4.30 to 5.52 | Cn1cc(-c2nccn3nc(Nc4ccc5c(c4)CS(=O)(=O)N5)nc23)cn1 [C115, (2,2-dioxo-2,3-dihydro-1H-2I6-benzo[c]isothiazol-5-yl)-[8-(1-methyl-1H-pyrazol-4-yl)-[1,2,4]triazolo[1,5-a]pyrazin-2-yl]-amine]
12 | > 7.00 | 5.52 to 6.52 | CC1(C)OC(=O)Nc2cc(Nc3nc4c(-c5cccc6[nH]ncc56)nccn4n3)ccc21 [C120, 7-[8-(1H-indazol-4-yl)-[1,2,4]triazolo[1,5-a]pyrazin-2-ylamino]-4,4-dimethyl-1,4-dihydro-benzo[d][1,3]oxazin-2-one]
13 | 6.52 to 7.00 | 4.30 to 5.52 | CC1(C)C(=O)Nc2cc(Nc3nc4c(N5CC(O)C5)nccn4n3)ccc21 [C74, 6-[8-(3-hydroxy-azetidin-1-yl)-[1,2,4]triazolo[1,5-a]pyrazin-2-ylamino]-3,3-dimethyl-1,3-dihydro-indol-2-one]
14 | > 7.00 | 4.30 to 5.52 | CC1(C)C(=O)Nc2cc(Nc3nc4c(N[C@H]5CCCNC5)nccn4n3)ccc21 [C85, 3,3-dimethyl-6-[8-((S)-piperidin-3-ylamino)-[1,2,4]triazolo[1,5-a]pyrazin-2-ylamino]-1,3-dihydro-indol-2-one]
15 | 5.52 to 6.52 | 4.30 to 5.52 | Cn1cc(-c2nccn3nc(Nc4ccc5c(C(=O)C(F)(F)F)c[nH]c5c4)nc23)cn1 [C112, 2,2,2-trifluoro-1-{6-[8-(1-methyl-1H-pyrazol-4-yl)-[1,2,4]triazolo[1,5-a]pyrazin-2-ylamino]-1H-indol-3-yl}-ethanone]
16 | > 7.00 | 4.30 to 5.52 | CC1(C)C(=O)Nc2cc(Nc3nc4c(N5CCC[C@H](N)C5)nccn4n3)ccc21 [C99, 6-[8-((S)-3-amino-piperidin-1-yl)-[1,2,4]triazolo[1,5-a]pyrazin-2-ylamino]-3,3-dimethyl-1,3-dihydro-indol-2-one]
17 | 6.52 to 7.00 | 4.30 to 5.52 | CC1(C)C(=O)Nc2cc(Nc3nc4c(N5CC[C@@H](O)C5)nccn4n3)ccc21 [C73, 6-[8-((R)-3-hydroxy-pyrrolidin-1-yl)-[1,2,4]triazolo[1,5-a]pyrazin-2-ylamino]-3,3-dimethyl-1,3-dihydro-indol-2-one]
18 | 5.52 to 6.52 | 5.52 to 6.52 | COc1ccc(Nc2nc3c(-c4cnn(C)c4)nccn3n2)cc1OC [C6, (3,4-Dimethoxy-phenyl)-[8-(1-methyl-1H-pyrazol-4-yl)-[1,2,4]triazolo[1,5-a]pyrazin-2yl]-amine]
19 | 6.52 to 7.00 | 4.30 to 5.52 | Cn1cc(-c2nccn3nc(Nc4ccc5cn[nH]c5c4)nc23)cn1 [C12, (1H-Indazol-6-yl)-[8-(1-methyl-1H-pyrazol-4-yl)-[1,2,4]triazolo[1,5-a]pyrazin-2-yl]-amine]
20 | > 7.00 | 4.30 to 5.52 | CC1(C)C(=O)Nc2cc(Nc3nc4c(N5CCC(F)(F)C5)nccn4n3)ccc21 [C105, 6-[8-(3,3-difluoro-pyrrolidin-1-yl)-[1,2,4]triazolo[1,5-a]pyrazin-2-ylamino]-3,3-dimethyl-1,3-dihydro-indol-2-one]
21 | 6.52 to 7.00 | 5.52 to 6.52 | CS(=O)(=O)c1ccc(-c2nccn3nc(Nc4ccc(N5CCOCC5)cc4)nc23)cc1 [C38, 8-(4-methylsulfonylphenyl)-N-(4-morpholinophenyl)-[1,2,4]triazolo[1,5-a]pyrazin-2-amine]
22 | 4.30 to 5.52 | 5.52 to 6.52 | Cn1cc(-c2nccn3nc(Nc4cnn(C5CCNCC5)c4)nc23)cn1 [C28, [8-(1-Methyl-1H-pyrazol-4-yl)-[1,2,4]triazolo[1,5-a]pyrazin-2-yl]-(1-piperidin-4-yl-1H-pyrazol-4-yl)-amine hydrochloride]
23 | > 7.00 | 4.30 to 5.52 | Cn1cc(-c2nccn3nc(Nc4ccc5c(c4)NC(=O)C5(C)C)nc23)cn1 [C34, 3,3-Dimethyl-6-[8-(1-methyl-1H-pyrazol-4-yl)-[1,2,4]triazolo[1,5-a]pyrazin-2-ylamino]-1,3-dihydro-indol-2-one]
24 | 4.30 to 5.52 | 4.30 to 5.52 | O=C(c1ccc(-c2nccn3nc(Nc4ccc(N5CCOCC5)cc4)nc23)cc1)N1CCOCC1 [C41, morpholin-4-yl-{4-[2-(4-morpholin-4-yl-phenylamino)-[1,2,4]triazolo[1,5-a]pyrazin-8-yl]-phenyl}-methanone]
